Experimental data published in patent US20170166561A1, “QUINUCLIDINE COMPOUNDS FOR MODULATING ALPHA7-NICOTINIC ACETYLCHOLINE RECEPTOR ACTIVITY” (Alpharmagen, LLC, priority 2014, published 2017).
Counter-ions that a name gives are not always drawn. Like-named read-outs stand apart in the source and are kept apart here.

Legend:
[1] = target: rat brain nicotinic receptor (α7 NAChR, α-Bungarotoxin binding site) (Rattus norvegicus, UniProt Q05941)
[2] = Human plasma stability (Protocols 1 and 2); type: in vitro ADME; conditions: human
Method: Example B6: Human Plasma Stability
Studies were carried out in human plasma. All plasma was obtained from Bioreclamation and collected on sodium heparin. Plasma was adjusted to pH 7.4. A DMSO stock was first prepared for the test compound. An aliquot of the DMSO solution was dosed into 1 mL of plasma, which had been pre-warmed to 37° C., at a final test compound concentration of 1 μM. The vials were kept in a benchtop Thermomixer® for the duration of the experiment. Aliquots (100 μL) were taken at each time point (0, 15, 30, 60, and 120 minutes) and added to 96-well plates which had been pre-filled with 300 μL of acetonitrile. Samples were stored at 4° C. until the end of the experiment. After the final time point was sampled, the plate was mixed and then centrifuged at 3,000 rpm for 10 minutes. Aliquots of the supernatant were removed, diluted 1:1 into distilled water, and analyzed by LC-MS/MS. The peak area response ratio to internal standard (PARR) of the compound at 15, 30, 60 and 120 minutes was compared to the PARR at time 0 to determine the percent of test compound remaining at each time point. Half-lives were calculated using GraphPad software, fitting to a single-phase exponential decay equation.
Studies were carried out in plasma. Plasma was prepared under approval of IRB and IACUC on sodium heparin. The pH of plasma was monitored and used within the range of pH 7.4 to pH 8.0. DMSO stocks were prepared for the test compounds. Aliquots of the DMSO solutions were diluted to 0.05 mM by 0.05 mM Sodium phosphate buffer with 0.5% BSA. Then 10 μL of 0.05 mM solutions were dosed into 90 μL of plasma in duplicates (n=2), which had been pre-warmed to 37° C., at a final test compound concentration of 5 μM. The plates were kept in a 37° C. water bath for the duration of the experiment. At each time point (0, 5, 15, 30, 45, 60, and 120 minutes), 400 μL of acetonitrile was added into corresponding wells. After the final time point was sampled, the plates were shaken at the vibrator (IKA, MTS 2/4) for 10 min (600 rpm/min) and then centrifuged at 5594 g for 15 min (Thermo Multifuge×3R). Aliquots of the supernatant were removed, diluted 1:1 into distilled water, and analyzed by LC-MS/MS. The peak area response ratio to internal standard (PARR) of the compounds at 5, 15, 30, 45, 60, and 120 minutes was compared to the PARR at time 0 to determine the percent of test compound remaining at each time point. Half-lives were calculated using Excel software, fitting to a single-phase exponential decay equation.

[3] = target: T1, Human α7 NAChR (Homo sapiens, UniProt P36544); assay: Electrophysiology screen at 1 μM in Xenopus laevis oocytes; type: cell-based; conditions: test compound 1 μM; Imax = maximal current produced by 3 mM ACh; holding voltage −70 mV
T1 construct: TriLink (mRNA); Ecocyte Bioscience (oocytes); host or cells: Xenopus laevis oocytes injected with mRNA
Method: Example B2: Electrophysiology Screen at 1 μM in Xenopus Laevis Oocytes
Human α7 NAChR mRNA Preparation:
Human α7 NAChR plasmid was prepared by GeneWiz from accession NM_000746.5. Human α7 NAChR mRNA was prepared by TriLink at a concentration near 1 μg/μL. The human α7 NAChR mRNA was diluted in sterile water to a working concentration near 10 ng/μL.
Xenopus laevis Oocyte Injection and Maintenance:
Oocytes were obtained from Xenopus laevis frogs and treated with collagenase by Ecocyte Bioscience. Oocytes were injected with the working concentration of α7 NAChR mRNA at a volume of 50 nL for a total of approximately 0.5 ng of α7 NAChR mRNA. Oocytes were maintained in Barth's solution at a temperature of 16° C. The Barth's solution was replaced daily.
Electrophysiology Measurement:
Two-electrode voltage clamp recordings were made 3-14 days following mRNA injections at a holding voltage of −70 mV. […]
In all oocyte recordings, drug and wash solutions were applied using a custom-designed microcapillary “linear array” which allows rapid application of agonists. Currents were recorded on a PC-based computer (PClamp, Molecular Devices, Sunnyvale, Calif.). […]
Stocks of test compounds were prepared in DMSO. […] The test solution was perfused onto the oocyte until a peak current was recorded. […]

[4] = Metabolic stability assay in human liver microsomes (HLM; Protocols 1 and 2); type: in vitro ADME; conditions: 1 μM
Method: Example B4: Metabolic Stability Assays
Studies were carried out in human and rat liver microsomes (“HLM” and “RLM,” respectively). Human and rat liver microsomes were purchased from BD Gentest. DMSO stocks were prepared for the test compounds. Aliquots of the DMSO solutions were diluted to 0.5 mM by acetonitrile, then further diluted by liver microsomes/buffer to 1.5 μM. 30 μL of 1.5 μM solutions were mixed with 15 μL of 6 mM NADPH, which had been pre-warmed to 37° C., at a final test compound concentration of 1 μM. The plates were kept in a 37° C. water bath for the duration of the experiment. At each time point (0, 5, 15, 30, 45 minutes), 135 μL of acetonitrile was added into corresponding wells. After the final time point was sampled, the plates were shaken at a vibrator (IKA, MTS 2/4) for 10 min (600 rpm/min) and then centrifuged at 5594 g for 15 min (Thermo Multifuge×3R). Aliquots of the supernatant were removed, diluted 1:1 into distilled water, and analyzed by LC-MS/MS. The peak area response ratio to internal standard (PARR) of the compounds at 5, 15, 30, 45 minutes was compared to the PARR at time 0 to determine the percent of test compound remaining at each time point. Half-lives were calculated using Excel software, fitting to a single-phase exponential decay equation.
Studies were carried out in human and rat liver microsomes. Buffer solutions were prepared as follows: Buffer A: 1.0 L of 0.1 M monobasic Potassium Phosphate buffer containing 1.0 mM EDTA; Buffer B: 1.0 L of 0.1 M Dibasic Potassium Phosphate buffer containing 1.0 mM EDTA; Buffer C: 0.1 M Potassium Phosphate buffer, 1.0 mM EDTA, pH 7.4 by titrating 700 mL of buffer B with buffer A while monitoring with a pH meter.
Reference compound (Ketanserin) and test compound spiking solutions were prepared as follows: 500 μM spiking solution: add 10 μL of 10 mM DMSO stock solution into 190 μL ACN; 1.5 μM spiking solution in microsomes (0.75 mg/mL): add 1.5 μL of 500 μM spiking solution and 18.75 μL of 20 mg/mL liver microsomes into 479.75 μL of Buffer C.
NADPH stock solution (6 mM) was prepared by dissolving NADPH into buffer C.
Assay procedure: 30 μL of 1.5 μM spiking solution containing 0.75 mg/mL microsomes solution was dispensed to the wells designated for 45 min, 30 min, 15 min, 5 min, and 0 min. The plate was pre-incubated at 37° C. for 10 minutes. 15 μL of NADPH stock solution (6 mM) was added to the wells designated as Time 45, and the timer was started. At 30 min, 15 min, and 5 min, 15 μL NADPH stock solution (6 mM) was added to the wells, respectively. At the end of incubation (0 min), 135 tit of ACN containing IS was added to all the wells. Then 15 tit of NADPH stock solution (6 mM) was added to the wells designated as Time 0. After quenching, the reaction mixtures were centrifuged at 3220 g for 10 min. Following centrifugation, 50 μL of the supernatant was transferred from each well into a 96-well sample plate containing 50 μL of ultra-pure water (Millipore) for LC/MS analysis. The peak area response (PARR) ratio to internal standard of the compounds at 5, 15, 30, and 45 minutes was compared to the PARR at time 0 to determine the percent of test compound remaining at each time point. Half-lives were calculated using Excel software, fitting to a single-phase exponential decay equation.

[5] = Protocol 2, plasma pH 7.4 to 8.0, 5 μM, 37° C., read-out: T1/2
[6] = Protocol 1, human liver microsomes, NADPH, 37° C.

Sequence of rat brain nicotinic receptor (α7 NAChR, α-Bungarotoxin binding site) (Q05941 23-502): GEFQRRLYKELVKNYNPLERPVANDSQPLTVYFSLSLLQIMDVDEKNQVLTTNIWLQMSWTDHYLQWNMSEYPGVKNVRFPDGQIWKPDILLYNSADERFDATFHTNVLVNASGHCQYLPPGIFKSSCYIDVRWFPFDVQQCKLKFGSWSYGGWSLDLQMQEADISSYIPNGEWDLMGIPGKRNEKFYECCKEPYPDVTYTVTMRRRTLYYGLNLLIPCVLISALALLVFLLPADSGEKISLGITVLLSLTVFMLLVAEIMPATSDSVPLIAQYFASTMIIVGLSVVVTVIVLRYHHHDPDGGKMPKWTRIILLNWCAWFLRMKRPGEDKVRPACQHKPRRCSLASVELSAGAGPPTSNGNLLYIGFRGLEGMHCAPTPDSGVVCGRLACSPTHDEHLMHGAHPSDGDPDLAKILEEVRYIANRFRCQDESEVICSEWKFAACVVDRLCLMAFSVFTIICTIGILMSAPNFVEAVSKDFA
T1 sequence (P36544 23-502): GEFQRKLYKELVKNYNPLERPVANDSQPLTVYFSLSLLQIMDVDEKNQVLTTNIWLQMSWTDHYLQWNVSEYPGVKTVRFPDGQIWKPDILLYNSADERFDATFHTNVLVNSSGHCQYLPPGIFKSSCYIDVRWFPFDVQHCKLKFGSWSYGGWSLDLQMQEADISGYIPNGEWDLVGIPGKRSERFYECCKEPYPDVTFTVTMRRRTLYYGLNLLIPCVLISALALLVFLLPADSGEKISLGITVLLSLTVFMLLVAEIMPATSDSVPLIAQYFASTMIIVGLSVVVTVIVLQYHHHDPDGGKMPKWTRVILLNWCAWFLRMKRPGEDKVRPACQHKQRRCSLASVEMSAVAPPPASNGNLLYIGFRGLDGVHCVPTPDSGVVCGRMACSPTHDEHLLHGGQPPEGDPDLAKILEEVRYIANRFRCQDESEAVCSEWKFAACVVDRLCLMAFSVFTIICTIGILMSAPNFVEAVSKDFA

| SMILES | half-life at 5 μM [2, 5] [min] | HLM ([4]; human, microsomes) [mL/min/kg] | half-life at 5 μM ([2]; plasma, pH 7.4) [min] | HLM [4, 6] [mL/min/kg] | further results |
| --- | --- | --- | --- | --- | --- |
| COc1cc2c(C(=O)OCC34CCN(CC3)CC4)c[nH]c2cc1C.Cl [Compound 79, quinuclidin-4-ylmethyl 5-methoxy-6-methyl-1H-indole-3-carboxylate hydrochloride] | 163 |  |  |  | IC50 [1]: 159 nM; Ki [1]: 137 nM; I/Imax [3]: 0.259 |
| Cc1cc(F)cc2[nH]cc(C(=O)OCC34CCN(CC3)CC4)c12 [Compound 44, quinuclidin-4-ylmethyl 6-fluoro-4-methyl-1H-indole-3-carboxylate] |  | 3.5 |  |  | T1/2 ([2]; plasma, pH 7.4): ∞ |
| COc1cc2c(C(=O)OCC34CCN(CC3)CC4)c[nH]c2cc1Cl [Compound 69, quinuclidin-4-ylmethyl 6-chloro 5-methoxy-1H-indole-3-carboxylate, hydrochloride] |  | 8.8 | 416 |  |  |
| Cc1cc2[nH]cc(C(=O)OCC34CCN(CC3)CC4)c2cc1Cl.Cl [Compound 66, quinuclidin-4-ylmethyl 5-chloro-6-methyl-1H-indole-3-carboxylate hydrochloride] | 316 |  |  | 0 |  |
| Cc1ccc2[nH]cc(C(=O)OCC34CCN(CC3)CC4)c2c1C [Compound 70, quinuclidin-4-ylmethyl 4,5-dimethyl-1H-indole-3-carboxylate] |  | 0 | 249 |  |  |
| COc1cc2[nH]cc(C(=O)OCC34CCN(CC3)CC4)c2cc1OC [Compound 87, quinuclidin-4-ylmethyl 5,6-dimethoxy-1H-indole-3-carboxylate] | 145 |  |  | 0.5 |  |
| Cc1cc2c(C(=O)OCC34CCN(CC3)CC4)c[nH]c2cc1Cl [Compound 78, quinuclidin-4-ylmethyl 6-chloro-5-methyl-1H-indole-3-carboxylate] |  | 0 | 286 |  |  |
| Cl.O=C(OCC12CCN(CC1)CC2)c1c[nH]c2cccc(C(F)(F)F)c12 [Compound 80, Quinuclidin-4-ylmethyl 4-(trifluoromethyl)-1H-indole-3-carboxylate hydrochloride] | 654 |  |  |  | I/Imax [3]: 0.032 |
| COc1ccc2c(C(=O)OCC34CCN(CC3)CC4)c[nH]c2c1 [Compound 10, quinuclidin-4-ylmethyl 6-methoxy-1H-indole-3-carboxylate] |  |  |  |  | IC50 [1]: 321 nM; Ki [1]: 279 nM |
| COc1cc2c(C(=O)OCC34CCN(CC3)CC4)c[nH]c2cc1F [Compound 57, quinuclidin-4-ylmethyl 6-fluoro-5-methoxy-1H-indole-3-carboxylate] | 328 |  |  | 0 |  |
